Test system: mouse popliteal lymph nodes
Assay: Evaluation of accumulation in SLN
Assay type: in vivo
Procedure: Migration to SLN was evaluated using mouse popliteal lymph nodes. A probe was administered to a mouse from the sole of the hindlimb, and accumulation in the popliteal lymph nodes was evaluated as a model of evaluation of accumulation in SLN. Ten microliters of a sample was subcutaneously administered to a mouse from the sole of the hindlimb, and after 24 hours, mouse popliteal lymph nodes were harvested. The harvested mouse popliteal lymph nodes were crushed, and the absorbance of the extract from the crushed lymph nodes was measured. The accumulation rate was calculated based on the following expression:
Accumulation rate=[(absorbance of the extracted mouse popliteal lymph nodes)/(absorbance of the sample in an amount equivalent to the administered amount)]×100.
The accumulation ratios, to SLN, of the photoacoustic imaging contrast agents prepared in Examples B1 to B6 and reagents prepared in Comparative Examples B1 and B2 were calculated according to the above-described evaluation examples for accumulation in SLN. In Table B1, the accumulation ratio means an accumulation rate of each photoacoustic imaging contrast agent or the ICG-albumin complex when the accumulation rate of the ICG aqueous solution used in Comparative Example B1 is assumed as 1.

- Accumulation ratio (accumulation rate relative to ICG aqueous solution = 1, 10 μL subcutaneous, sole of hindlimb, 24 hours, absorbance at 790 or 800 nm): 1
- Accumulation in SLN (in words) (mouse, in vivo): low
SMILES: CC1(C)C(/C=C/C=C/C=C/C=C2/N(CCCCS(=O)(=O)[O-])c3ccc4ccccc4c3C2(C)C)=[N+](CCCCS(=O)(=O)[O-])c2ccc3ccccc3c21.[Na+] [ICG, indocyanine green]

Source: US20130095038A1, “PARTICLES, AND PHOTOACOUSTIC IMAGING CONTRAST AGENT AND SLN CONTRAST AGENT INCLUDING THE PARTICLES” (CANON KABUSHIKI KAISHA, priority 2011, published 2013)
